Measured values from patent US6514997B2, “Antipicornaviral compounds and compositions, their pharmaceutical uses, and materials for their synthesis” (Agouron Pharmaceuticals, Inc., priority 1999, dated 2003).
Read-outs that look alike come from different tables or passages of the source.

Columns and labels:
[1] = target: T1, Recombinant rhinovirus 3C protease, serotype 14 (Human rhinovirus 14, UniProt P03303); test: Inhibition of rhinovirus 3C protease (FRET assay, kobs/[I]), serotype 14; format: biochemical; settings: pH 7.6, read-out: kobs/[I] (3C protease inhibition activity)
T1 construct: Recombinant rhinovirus 3C proteases; made in house
Outline: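 kobs/[I] values came from progress curves of reactions started by adding 50-100 nM protease to buffer (50 mM tris pH 7.6, 1 mM EDTA, 2% DMSO) containing compound and ~1 μM quenched DABCYL-EDANS substrate. Rising EDANS fluorescence reported cleavage.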

HRV-14 = test: Antirhinoviral H1-HeLa cell culture assay (XTT cell protection, EC50), HRV-14; format: cell-based, human rhinovirus (HRV) serotype-14 in H1-HeLa cells; settings: Rhinovirus B, HRV14, H1-HeLa
Outline: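 XTT dye reduction (450/650 nm) measured survival of H1-HeLa cells two days after HRV-14 infection at m.o.i. 0.13 in the presence of compound, giving EC50. The therapeutic index is CC50 divided by EC50.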

[2] = Cytotoxicity (CC50) in mock-infected H1-HeLa cells, XTT dye reduction; format: cell-based, human; settings: human, H1-HeLa cells; for CC50 at 1 day: line of CVB3
Outline: (§1)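 XTT dye reduction (formazan, 450/650 nm) in H1-HeLa cells, mock-infected, gave CC50.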

[3] = test system: Coxsackievirus type A-21 (CAV-21); test: Anticoxsackieviral cell culture assay (XTT, EC50), CAV-21; format: cell-based, coxsackievirus A-21 in H1-HeLa cells; settings: Coxsackievirus; CAV-21; read-out: EC50
Method: (§2) Anticoxsackieviral Cell Culture Assay:
(§3) Coxsackievirus types A-21 (CAV-21) and B3 (CVB3) were purchased from American Type Culture Collection (ATCC, Rockville, Md.). Virus stocks were propagated and antiviral assays were performed in H1-HeLa cells (ATCC). Cells were grown in minimal essential medium with 10% fetal bovine serum (Life Technologies, Gaithersburg, Md.). The ability of the compounds of this invention to protect cells against either CAV-21 or CVB3 infection was measured by the XTT dye reduction method. This method is described in Weislow et al., J. Natl. Cancer Inst. (1989), vol. 81, 577-586. H1-HeLa cells were infected with CAV-21 or CVB3 at a multiplicity of infection (m.o.i.) of 0.025 or 0.075, respectively, or mock-infected with medium only. H1-HeLa cells were plated at 4×10^4 cells per well in a 96-well plate and incubated with appropriate concentrations of the test compound. One day (CVB3) or two days (CAV-21) later, XTT/PMS was added to test plates and the amount of formazan produced was quantified spectrophotometrically at 450/650 nm. […] The therapeutic index (TI) was calculated by dividing the CC50 by the EC50.

[4] = test system: Coxsackievirus type B3 (CVB3); test: Anticoxsackieviral cell culture assay (XTT, EC50), CVB3; format: cell-based, coxsackievirus B3 in H1-HeLa cells; settings: CVB3; read-out: EC50
Method: as §2, §3

[5] = test system: Echovirus type 11 (ECHO 11); test: Anti-echoviral cell culture assay (XTT, EC50), ECHO 11; format: cell-based, echovirus 11 in MRC-5 cells; settings: Enterovirus B; ECHO-11; read-out: EC50
Method: (§4) Anti-Echoviral and Anti-Enteroviral Cell Culture Assays
(§5) Echovirus type 11 (ECHO 11) was purchased from ATCC (Rockville, Md.). Virus stocks were propagated and antiviral assays were performed in MRC-5 cells (ATCC). Cells were grown in minimal essential medium with 10% fetal bovine serum (Life Technologies, Gaithersburg, Md.). The ability of the compounds of this invention to protect cells against ECHO 11 infection was measured by the XTT dye reduction method (Weislow et al., J. Natl. Cancer Inst. (1989), vol. 81, 577-586). MRC-5 cells were infected with ECHO 11 at an m.o.i. of 0.003 or 0.004, respectively, or mock-infected with medium only. Infected or uninfected cells were added at 1×10^4 cells per well and incubated with appropriate concentrations of compound. Four days later, XTT/PMS was added to test plates, and the amount of formazan produced was quantified spectrophotometrically at 450/650 nm. […] The therapeutic index (TI) was calculated by dividing the CC50 by the EC50. Activity of the compounds against enterovirus type 70 (EV 70) may be measured by the same assay as described above in this section. Enterovirus type 70 (EV 70) may be obtained from the American Type Culture Collection ATCC (Rockville, Md.).

[6] = test system: enterovirus type 70 (EV 70); test: Anti-enteroviral cell culture assay (XTT, EC50), EV 70; format: cell-based, enterovirus 70 in MRC-5 cells; settings: Enterovirus D; ENT-70
Method: as §4, §5

[7] = Cytotoxicity (CC50) in uninfected MRC-5 cells, XTT dye reduction; format: cell-based, human; settings: human, MRC-5 cells, uninfected (mock-infected); line of ECHO-11
Method: as §5

MRC-5 cells = test: as above; format: cell-based, human; settings: line of ENT-70
Method: as §5

[8] = test system: strains of human rhinovirus (HRV); test: Antirhinoviral H1-HeLa cell culture assay (XTT cell protection, EC50), other HRV strains; format: cell-based, human rhinovirus in H1-HeLa cells; settings: read-out: EC50
Outline: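 Protection of H1-HeLa cells from rhinovirus was scored two days post-infection via XTT dye reduction read at 450/650 nm, alongside mock-infected cells for toxicity. CC50/EC50 gives the therapeutic index.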

H1-HeLa cells = test: Cytotoxicity (CC50) in mock-infected H1-HeLa cells, XTT dye reduction; format: cell-based, human
Outline: as §1

coxsackievirus B2 (CVB2) = test: Antiviral cell culture assay (EC50), coxsackievirus B2; format: cell-based; settings: Enterovirus B
coxsackievirus B5 (CVB5) = test: Antiviral cell culture assay (EC50), coxsackievirus B5; format: cell-based; settings: Enterovirus B
echovirus 9 (ECHO-9) = test: Antiviral cell culture assay (EC50), echovirus 9; format: cell-based; settings: Enterovirus B; ECHO9
[9] = Cytotoxicity (CC50), cell line not stated; format: cell-based
[10] = uninfected (mock-infected), line of CAV-21

T1 sequence (P03303 1538-1719): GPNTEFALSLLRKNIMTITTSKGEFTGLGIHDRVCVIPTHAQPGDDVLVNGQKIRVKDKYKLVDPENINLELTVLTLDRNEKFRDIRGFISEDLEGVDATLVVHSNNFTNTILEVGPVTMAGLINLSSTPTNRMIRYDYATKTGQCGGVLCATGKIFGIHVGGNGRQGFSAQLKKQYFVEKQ

Q: Which kinact/KI ([1]; HRV-14) does the source give for `CCOC(=O)/C=C/[C@H](CCC(N)=O)NC(=O)[C@H](Cc1ccccc1)n1cccc(NC(=O)OCc2ccccc2)c1=O` [Compound 1, trans-(2′S,4S)-4-[2′-(3″-Benzyloxycarbonylamino-2″-oxo-2″H-pyridin-1″-yl)-3′-phenylpropionylamino]-6-carbamoylhex-2-enoic Acid Ethyl Ester] here?
A: 114000 M⁻¹ s⁻¹

Q: What about the EC50 (HRV-14; HRV-14, read-out: EC50) of the same molecule?
A: 33 nM

Q: And the CC50 at 2 days ([2]; mock-infected, line of HRV-14)?
A: 50100 nM

Q: And the CC50 at 2 days [2, 10]?
A: > 10000 nM

Q: And the CC50 at 1 day ([2]; uninfected (mock-infected))?
A: > 10000 nM

Q: And the EC50 [3]?
A: 1480 nM

Q: What about the EC50 [4] of the same molecule?
A: 539 nM

Q: And the EC50 [5]?
A: 160 nM

Q: What about the EC50 [6] of the same molecule?
A: 12 nM

Q: And the CC50 at 4 days [7]?
A: > 10000 nM

Q: What about the CC50 (MRC-5 cells) of the same molecule?
A: > 10000 nM

Q: For `CCOC(=O)/C=C\[C@H](CCC(N)=O)NC(=O)[C@H](Cc1ccccc1)n1cccc(NC(=O)c2cc(C)on2)c1=O` [Compound 5, trans-(2′S,4S)-6-Carbamoyl-4-(2′-{3″-[(5′″-methylisoxazole-3′″-carbonyl)amino]-2″-oxo-2″H-pyridin-1″-yl}-3′-phenylpropionylamino)hex-2-enoic Acid Ethyl Ester], which kinact/KI ([1]; HRV-14) is on record?
A: 329000 M⁻¹ s⁻¹

Q: What about the EC50 (HRV-14; HRV-14, read-out: EC50) of the same molecule?
A: 16 nM

Q: What about the CC50 at 2 days ([2]; mock-infected, line of HRV-14) of the same molecule?
A: > 10000 nM

Q: And the CC50 at 2 days [2, 10]?
A: > 10000 nM

Q: And the CC50 at 1 day ([2]; uninfected (mock-infected))?
A: > 10000 nM

Q: And the EC50 [3]?
A: 1390 nM

Q: And the EC50 [4]?
A: 577 nM

Q: What about the EC50 [5] of the same molecule?
A: 54 nM

Q: And the EC50 [6]?
A: 18 nM

Q: What about the CC50 at 4 days [7] of the same molecule?
A: > 10000 nM

Q: And the CC50 (MRC-5 cells)?
A: > 10000 nM

Q: For `CCOC(=O)/C=C/[C@H](CCC(N)=O)NC(=O)[C@H](Cc1ccccc1)n1cccc(NC(=O)C2CCCC2)c1=O` [Compound 6, trans-(2′S,4S)-6-Carbamoyl-4-{2′-[3″-cyclopentanecarbonylamino-2″-oxo-2″H-pyridin-1″-yl]-3′-phenylpropionylamino}hex-2-enoic Acid Ethyl Ester], which kinact/KI ([1]; HRV-14) is on record?
A: 37400 M⁻¹ s⁻¹

Q: What about the EC50 (HRV-14; HRV-14, read-out: EC50) of the same molecule?
A: 34 nM

Q: What about the CC50 at 2 days ([2]; mock-infected, line of HRV-14) of the same molecule?
A: > 10000 nM

Q: And the CC50 at 2 days [2, 10]?
A: > 10000 nM

Q: What about the CC50 at 1 day ([2]; uninfected (mock-infected)) of the same molecule?
A: > 10000 nM

Q: What about the EC50 [3] of the same molecule?
A: 4680 nM

Q: What about the EC50 [4] of the same molecule?
A: 2500 nM

Q: And the EC50 [5]?
A: 346 nM

Q: What about the EC50 [6] of the same molecule?
A: 61 nM

Q: What about the CC50 at 4 days [7] of the same molecule?
A: > 10000 nM

Q: And the CC50 (MRC-5 cells)?
A: > 10000 nM

Q: With `CC[C@@H](C(=O)N[C@H](/C=C/C(=O)OC1CCC1)C[C@@H]1CCNC1=O)n1cccc(NC(=O)c2cc(C)on2)c1=O` [Compound 59, trans-(2′S,3′″″S,4S)-4-[2′-(3″-{[1′″-(5″″-Methylisoxazol-3″″-yl)methanoyl]amino}-2′″oxo-2′″H-pyridin-1′″-yl)butanoylamino]-5-(2′″″-oxopyrrolidin-3′″″-yl)pent-2-enoic Acid Cyclobutyl Ester] as the molecule, how does the kinact/KI ([1]; HRV-14 3C protease) read?
A: 170000 M⁻¹ s⁻¹

Q: And the EC50 (HRV-14)?
A: 20 nM

Q: What about the EC50 ([8]; H1-HeLa, HRV-1A) of the same molecule?
A: 84 nM

Q: And the EC50 ([8]; H1-HeLa, HRV-2)?
A: 49 nM

Q: What about the EC50 ([8]; H1-HeLa, HRV-23) of the same molecule?
A: 37 nM

Q: And the EC50 ([8]; Human rhinovirus sp., H1-HeLa, HRV-Hanks)?
A: 83 nM

Q: And the EC50 ([8]; Human rhinovirus sp., HRV3, H1-HeLa, HRV-3)?
A: 33 nM

Q: And the EC50 ([8]; Human rhinovirus sp., HRV9, H1-HeLa, HRV-9)?
A: 70 nM

Q: What about the EC50 ([8]; Human rhinovirus sp., HRV10, H1-HeLa, HRV-10) of the same molecule?
A: 58 nM

Q: What about the EC50 ([8]; Human rhinovirus sp., HRV11, H1-HeLa, HRV-11) of the same molecule?
A: 14 nM

Q: And the EC50 ([8]; Human rhinovirus sp., HRV13, H1-HeLa, HRV-13)?
A: 12 nM

Q: And the EC50 ([8]; Human rhinovirus sp., HRV16, H1-HeLa, HRV-16)?
A: 105 nM

Q: What about the EC50 ([8]; Human rhinovirus sp., HRV19, H1-HeLa, HRV-19) of the same molecule?
A: 44 nM

Q: And the EC50 ([8]; Human rhinovirus sp., HRV25, H1-HeLa, HRV-25)?
A: 42 nM

Q: What about the EC50 ([8]; Human rhinovirus sp., HRV39, H1-HeLa, HRV-39) of the same molecule?
A: 122 nM

Q: And the EC50 ([8]; Human rhinovirus sp., HRV78, H1-HeLa, HRV-78)?
A: 73 nM

Q: What about the CC50 at 2 days ([2]; mock-infected, HRV-14) of the same molecule?
A: > 10000 nM

Q: And the CC50 (H1-HeLa cells; HRV-1A)?
A: > 10000 nM

Q: And the CC50 (H1-HeLa cells; HRV-2)?
A: > 10000 nM

Q: What about the CC50 (H1-HeLa cells; HRV-3) of the same molecule?
A: > 10000 nM

Q: And the CC50 (H1-HeLa cells; HRV-9)?
A: > 10000 nM

Q: And the CC50 (H1-HeLa cells; HRV-10)?
A: > 10000 nM

Q: And the CC50 (H1-HeLa cells; HRV-11)?
A: > 10000 nM

Q: What about the CC50 (H1-HeLa cells; HRV-13) of the same molecule?
A: > 10000 nM

Q: And the CC50 (H1-HeLa cells; HRV-16)?
A: > 10000 nM

Q: And the CC50 (H1-HeLa cells; HRV-19)?
A: > 10000 nM

Q: What about the CC50 (H1-HeLa cells; HRV-23) of the same molecule?
A: > 10000 nM

Q: What about the CC50 (H1-HeLa cells; HRV-25) of the same molecule?
A: > 10000 nM

Q: What about the CC50 (H1-HeLa cells; HRV-39) of the same molecule?
A: > 10000 nM

Q: What about the CC50 (H1-HeLa cells; HRV-78) of the same molecule?
A: > 10000 nM

Q: And the CC50 (H1-HeLa cells; HRV-Hanks)?
A: > 10000 nM

Q: What about the EC50 (coxsackievirus B2 (CVB2)) of the same molecule?
A: 50 nM

Q: What about the EC50 (coxsackievirus B5 (CVB5)) of the same molecule?
A: 40 nM

Q: And the EC50 (echovirus 9 (ECHO-9))?
A: 40 nM

Q: And the CC50 ([9]; CVB2)?
A: > 10000 nM

Q: What about the CC50 ([9]; CVB5) of the same molecule?
A: > 10000 nM

Q: What about the CC50 ([9]; ECHO9) of the same molecule?
A: > 10000 nM
